For ten molecules, IC50 and half-life results are on record in patent publication US12018011B2, “Macrocyclic compounds and compositions, and methods of preparing and using the same” (Kura Oncology, Inc., priority 2021, dated 2024).

The structures appear in SMILES notation.

Data set [1] addresses T1, geranylgeranyl transferase type-1 (GGTase) (Homo sapiens, UniProt P53609).
T1 construct: purchased Crelux (Martinsried, Germany)
Briefly: GGTase fluorescence assay (dansyl-GCVLL peptide, GGPP). It is filed as biochemical. The conditions noted are these: GGTase 25 nM, Dansyl-GCVLL 10 μM, GGPP 10 μM, 30° C., 120 minutes. From the text:
(§1) T24/83 cell line was purchased from the European Collection of Authenticated Cell Cultures (Salisbury, UK). Recombinant human farnesyl transferase (FTase) and geranylgeranyl transferase type-1 (GGTase) were obtained from Crelux (Martinsried, Germany). Dansyl labelled GCVLS peptide was purchased from Bachem (Torrance, CA), and Dansyl labelled GCVLL peptide was purchased from Bio Synthesis (Lewisville, TX). Farnesyl Pyrophosphate (FPP) and Geranylgeranyl pyrophosphate (GGPP) were purchased from Cayman (Ann Arbor, MI).
Geranylgeranyl transferase (GGTase) is a closely related enzyme to farnesyl transferase (FTase). The two enzymes share a common regulatory chain but have distinct individual enzymatic domains. GGTase catalyses the addition of an alternative prenylated side chain to some of the same proteins that may also be farnesylated. Thus, selective inhibitory activity against FTase relative to GGTase is a critical characteristic for FTase inhibitors.
The IC50 value of the compounds disclosed herein as inhibitors of Ftase and/or GGTase, was determined by measuring the concentration (provided in nM) necessary to achieve inhibition of enzyme activity by 50% (IC50). […] Compounds having a low IC50 value against FTase, for example an IC50 (FTase)<100 nM, such as an IC50 (FTase)<10 nM, are preferred. Compounds having a low IC50 value against FTase and a high IC50 value against GGTase, for example an IC50 (FTase)<100 nM, such as an IC50 (FTase)<10 nM, and an IC50 (GGTase)>100 nM, are potent and selective inhibitors of FTase, and are particularly preferred.
The inhibition activities of the compounds disclosed herein against Ftase and GGTase were measured in the respective fluorescence assays as follows:
For the GGTase assay, GGTase (25 nM), Dansyl labelled GCVLL peptide (10 μM), GGPP (10 μM) and inhibitor were mixed in assay buffer (50 mM Tris, pH 7.5, 10 mM magnesium chloride, 10 μM zinc chloride, 0.08% CHAPS, 5 mM dithiothreitol) and incubated in a total volume of 20 μL at 30° C. for 120 minutes.
For both the FTase assay and GGTase assay, fluorescence intensity was detected (excitation at 340 nm and emission at 486 nm) using EnVision (PerkinElmer; Waltham, MA), IC50 determinations were performed using a sigmoidal dose-response model with Xlfit software (IDBS, Inc.; Boston, MA), and tipifarnib was used as a positive control. All the assay plates for each assay passed the QC criteria (S/B, Z factor).

A short description of data set [2]: Metabolic stability in human liver microsomes. It is filed as in vitro ADME. Particulars: human liver microsomes 0.5 mg protein/mL, test compound 1 μM, 37° C.; read-out: T1/2 in HLM. How it is done:
(§2) The metabolic stability of the compounds disclosed herein was determined by measuring half-life (T1/2) of the compounds in the presence of mouse liver microsomes (MLM) or human liver microsomes (BILM).
(§3) Intermediate solution: 5 μL of compound and control stock solution (10 mM in dimethyl sulfoxide (DMSO)) were diluted with 495 μL of acetonitrile (ACN) (intermediate solution concentration: 100 μM, 99% ACN).
(§4) Working solution: 50 μL of compound and control intermediate solution (100 μM) were diluted with 450 μL of 100 mM potassium phosphate buffer (working solution concentration: 10 μM, 9.9% ACN).
(§5) Controls used in this assay: Testosterone, Diclofenac, and Propafenone.
(§6) Preparation Procedure: The appropriate amount of NADPH powder was weighed and diluted into a 10 mM MgCl2 solution (working solution concentration: 10 unit/mL; final concentration in reaction system: 1 unit/mL).
(§7) The appropriate concentrations of microsome working solutions were prepared in 100 mM potassium phosphate buffer.
(§8) Cold (4° C.) acetonitrile (CAN) containing 200 ng/mL tolbutamide and 200 ng/mL labetalol as internal standards (IS) was used as the stop solution.
(§9) Using an Apricot automation workstation, 10 μL/well of compound working solution were added to all 96-well reaction plates except the blank (T0, T5, T10, T20, T30, T60, and NCF60).
(§10) An Apricot automation workstation was used to add 80 μL/well of microsome solution to all reaction plates (Blank, T0, T5, T10, T20, T30, T60, and NCF60).
(§11) All reaction plates containing mixtures of compound and microsomes were pre-incubated at 37° C. for 10 minutes.
(§12) An Apricot automation workstation was used to add 10 μL/well of 100 mM potassium phosphate buffer to reaction plate NCF60.
(§13) Reaction plate NCF60 was incubated at 37° C. for 60 minutes.
(§14) After pre-incubation, an Apricot automation workstation was used to add 10 μL/well of NADPH regenerating system to every reaction plate except NCF60 (Blank, T0, T5, T10, T20, T30, and T60) to start the reaction. Final concentration of each component in incubation medium: Microsome (0.5 mg protein/mL); Test Compound (1 μM); Control Compound (1 μM); Acetonitrile (0.99%); DMSO (0.01%).
(§15) The reaction plates were incubated at 37° C. for 0 minute (T0, stop solution was added prior to microsome and NADPH solutions), 5 minutes (T5), 10 minutes (T10), 20 minutes (T20), 30 minutes (T30), 60 minutes (T60).
(§16) An Apricot automation workstation was used to add 300 μL/well of stop solution to each reaction plate at its appropriate end time point to terminate the reaction.
(§17) Each plate was sealed and shaken for 10 minutes.
(§18) After shaking, each plate was centrifuged at 4000 rpm and 4° C. for 20 minutes.
(§19) During centrifugation, an Apricot automation workstation was used to add 300 µL/well of HPLC grade water to eight new 96-well plates.
(§20) After centrifugation, an Apricot automation workstation was used to transfer 100 μL of supernatant from each reaction plate to its corresponding bioanaylsis plate.
(§21) Each bioanalysis plate was sealed and shaken for 10 minutes prior to LC-MS/MS analysis.
(§22) The equation of first order kinetics was used to calculate T1/2 and CLint(mic) (μL/min/mg).
(Liver microsomes are vesicles of endoplasmic reticulum, rich in cytochrome P450 enzymes.)

For data set [3], the target named is T2, Recombinant human farnesyl transferase (FTase) (Homo sapiens, UniProt P49356).
T2 construct: purchased Crelux (Martinsried, Germany)
Nature of the data set: FTase fluorescence assay (farnesylation of dansyl-GCVLS peptide). Particulars: recombinant human FTase 2.5 nM, Dansyl-GCVLS 85 nM, FPP 30 nM, 30° C., 50 minutes. It is filed as biochemical.

In another data set the test system is T24/83 cells. Nature of the data set: T24/83 cell proliferation assay (CellTiter-Glo). It is filed as cell-based. Particulars: Homo sapiens, 96 h, 4 days.
From the text: as §1
Mutant oncogenic HRAS was originally identified in a human bladder carcinoma cell line called T24. T24/83 is a subline of T24 established more recently that has more favorable growth characteristics for in vitro assays. Thus, T24/83 is a well-characterized mutant HRAS-dependent cell line that is an ideal model for quantifying the HRAS-dependent antitumor activity of farnesyltransferase inhibitors.
T24/83 cells were inoculated into 384 well plates at 100 cells/well, and grown in the presence of inhibitor, 0.7% DMSO as a negative control, or 100 μM tipifarnib as a positive control, at 37° C. for 4 days. Cell viability was assessed using the CellTiter-Glo Kit (CTG) (Promega; Madison, WI). Luminescence was recorded using EnVision microplate reader (PerkinElmer; Waltham, MA). In this assay, tipifarmib was used as a positive control. All the assay plates passed the QC criteria (S/B, Z-factor).

A short description of data set [4]: Metabolic stability in mouse liver microsomes. The data set is classed as in vitro ADME. Particulars: CD-1 mouse liver microsomes 0.5 mg protein/mL, test compound 1 μM, 37° C.; read-out: T1/2 in MLM. How it is done:
as §2, §3, §4, §5, §6, §7, §8, §9, §10, §11, §12, §13, §14, §15, §16, §17, §18, §19, §20, §21, §22

As usually defined, the IC50 is the concentration needed to halve the response being measured.

Consider `Cn1cncc1[C@@]1(O)c2ccc(C#N)c(c2)CCc2cccc(c2)-c2cc(=O)n(C)c3ccc1cc23` [(R)-6, (R)-3-hydroxy-2^1-methyl-3-(1-methyl-1H-imidazol-5-yl)-2^2-oxo-2^1,2^2-dihydro-2(4,6)-quinolina-1,4(1,3)-dibenzenacyclohexaphane-4^4-carbonitrile], for which the values for the IC50 (in data set [1]; in data set [3]; with T24/83 cells) were > 1 µM, ≤ 0.01 µM and ≤ 0.05 µM, respectively. Also, the half-life at 1 μM in data set [2] was < 30 min; in data set [4], 5 to 15 min.

`Cn1cncc1[C@@]1(N)c2ccc(C#N)c(c2)CCc2cccc(c2)-c2cc(=O)n(C)c3ccc1cc23` [(R)-7, (R)-3-amino-2^1-methyl-3-(1-methyl-1H-imidazol-5-yl)-2^2-oxo-2^1,2^2-dihydro-2(4,6)-quinolina-1,4(1,3)-dibenzenacyclohexaphane-4^4-carbonitrile]: the IC50 in data set [1] was > 1 µM; in data set [3] it was ≤ 0.01 µM; in the data set with T24/83 cells it was ≤ 0.05 µM. Further, the half-life at 1 μM is < 30 min in data set [2] and 5 to 15 min in data set [4].

For `[2H]C([2H])([2H])n1c(=O)cc2c3cc(ccc31)[C@@](N)(c1cncn1C)c1ccc(C#N)c(c1)CCc1cccc-2c1` [(R)-8, (R)-3-amino-2^1-(methyl-d3)-3-(1-methyl-1H-imidazol-5-yl)-2^2-oxo-2^1,2^2-dihydro-2(4,6)-quinolina-1,4(1,3)-dibenzenacyclohexaphane-4^4-carbonitrile], the IC50 in data set [1] is > 1 µM; in data set [3], ≤ 0.01 µM; in the data set on T24/83 cells, ≤ 0.05 µM. For the same molecule, the half-life at 1 μM in data set [2] was < 30 min; in data set [4], 5 to 15 min.

On to `Cn1cncc1[C@@]1(O)c2ccc(Cl)c(c2)CCc2cccc(c2)-c2cc(=O)n(C)c3ccc1cc23` [(S)-3, (S)-4^4-chloro-3-hydroxy-2^1-methyl-3-(1-methyl-1H-imidazol-5-yl)-2^1,2^2-dihydro-2(4,6)-quinolina-1,4(1,3)-dibenzenacyclohexaphan-2^2-one], for which the IC50 in data set [1] was > 1 µM; in data set [3] it was ≤ 0.01 µM; in the data set with T24/83 cells, ≤ 0.05 µM. For the same molecule, the half-life at 1 μM in data set [2] is < 30 min; in data set [4], 5 to 15 min.

Consider `Cn1cncc1[C@@]1(N)c2ccc(Cl)c(c2)CCc2cccc(c2)-c2cc(=O)n(C)c3ccc1cc23` [(S)-4, (S)-3-amino-4^4-chloro-2^1-methyl-3-(1-methyl-1H-imidazol-5-yl)-2^1,2^2-dihydro-2(4,6)-quinolina-1,4(1,3)-dibenzenacyclohexaphan-2^2-one], for which the values for the half-maximal inhibitory concentration (IC50) (in data set [1]; in data set [3]; in the data set with T24/83 cells) were > 1 µM, ≤ 0.01 µM and ≤ 0.05 µM, respectively. Besides, the half-life at 1 μM in data set [2] is < 30 min; in data set [4], < 5 min.

Regarding `Cn1cncc1[C@@]1(O)c2ccc(Cl)c(c2)OCc2cccc(c2)-c2cc(=O)n(C)c3ccc1cc23` [(S)-14, (S)-4^4-chloro-3-hydroxy-2^1-methyl-3-(1-methyl-1H-imidazol-5-yl)-2^1,2^2-dihydro-5-oxa-2(4,6)-quinolina-1,4(1,3)-dibenzenacyclohexaphan-2^2-one], the IC50 is > 1 µM in data set [1], ≤ 0.01 µM in data set [3] and 0.05 to 0.5 µM with T24/83 cells. The results for the half-life at 1 μM in data set [2] and in data set [4] were 30 to 100 min and < 5 min, respectively.

With `Cn1cncc1[C@@]1(N)c2ccc(C#N)c(c2)OCc2cccc(c2)-c2cc(C#N)nc3ccc1cc23` [(S)-21, (S)-3-amino-3-(1-methyl-1H-imidazol-5-yl)-5-oxa-2(4,6)-quinolina-1,4(1,3)-dibenzenacyclohexaphane-2^2 4^4-dicarbonitrile], the results for the IC50 (in data set [1]; in data set [3]; in the data set with T24/83 cells) were 0.1 to 1 µM, ≤ 0.01 µM and ≤ 0.05 µM, respectively.

For the molecule `Cn1cncc1[C@@]1(N)c2ccc(Cl)c(c2)COc2cccc(c2)-c2cc(C#N)nc3ccc1cc23` [(S)-48, (S)-3-amino-4^4-chloro-3-(1-methyl-1H-imidazol-5-yl)-6-oxa-2(4,6)-quinolina-1,4(1,3)-dibenzenacyclohexaphane-2^2-carbonitrile], the IC50 in data set [1] is > 1 µM; in data set [3], ≤ 0.01 µM; in the data set on T24/83 cells, ≤ 0.05 µM.

As to `[2H]C([2H])([2H])n1c(=O)cc2c3cc(ccc31)[C@@](O)(c1cncn1C)c1ccc(C#N)c(c1)COc1cccc-2c1` [(S)-55, (S)-3-hydroxy-2^1-(methyl-d3)-3-(1-methyl-1H-imidazol-5-yl)-2^2-oxo-2^1,2^2-dihydro-6-oxa-2(4,6)-quinolina-1,4(1,3)-dibenzenacyclohexaphane-4^4-carbonitrile], the results for the IC50 (in data set [1]; in data set [3]; with T24/83 cells) were > 1 µM, ≤ 0.01 µM and ≤ 0.05 µM, respectively.

For the molecule `Cn1cncc1[C@@]1(N)c2ccc(C#N)c(c2)COc2cccc(c2)-c2cc(=O)n(C3CC3)c3ccc1cc23` [(S)-57, (S)-3-amino-2^1-cyclopropyl-3-(1-methyl-1H-imidazol-5-yl)-2^2-oxo-2^1,2^2-dihydro-6-oxa-2(4,6)-quinolina-1,4(1,3)-dibenzenacyclohexaphane-4^4-carbonitrile], the results for the IC50 (in data set [1]; in data set [3]; with T24/83 cells) were > 1 µM, ≤ 0.01 µM and ≤ 0.05 µM, respectively.
